Experimental data published in paper PMC9266914, “Broad Spectrum Functional Activity of Structurally Related Monoanionic Au(III) Bis(Dithiolene) Complexes” (International Journal of Molecular Sciences, 2022).
“And” between values parts separate entries of the source, which are not always exact repeats. Equal values may be shown once. Read-outs that look alike come from different tables or passages of the source.

How the values were obtained:
[1] = tested on: OVCAR8 ovarian cancer cells; assay: MTT cytotoxicity assay in OVCAR8 (cisplatin resistant) ovarian cancer cells; assay type: cell-based, human; conditions: 48 h incubation
Procedure: Cells were exposed to increasing concentrations of the complexes (0.01–100 μM) for 24 and/or 48 h, at 37 °C. The IC50 values were calculated from dose–response curves using the colorimetric MTT assay. […] Most complexes presented a similar cytotoxicity profile compared to Auranofin, but higher activity compared to Cisplatin, and, most importantly, were active in the Cisplatin-resistant OVCAR8 cells (Table 2).
The cytotoxic activity of the complexes was evaluated in the A2780 (cisplatin sensitive) (Sigma-Aldrich) and OVCAR8 (cisplatin resistant) (ATCC) ovarian cancer cells. Cells were grown in RPMI-1640 medium (Gibco, Thermo Fisher) supplemented with 10% fetal bovine serum (FBS) and were maintained at 37 °C in a humidified atmosphere with 5% CO2. The complexes were initially dissolved in DMSO and then in culture medium to prepare serial dilutions in the range 10^−9–10^−4 M. After 24 and/or 48 h incubation the cellular viability was measured by the colorimetric MTT assay, as previously described.

[2] = tested on: Huh7 cells; assay: Cell viability (cell confluency, Alamar Blue) of P. berghei-infected Huh7 cells; assay type: cell-based; conditions: 5 µM, in words
Procedure: The in vitro liver stage activity of gold complexes was assessed against P. berghei-infected Huh7 cells, as previously described. Briefly, Huh7 cells were cultured in RPMI-1640 medium supplemented with 10% (v/v) fetal bovine serum, 1% (v/v) penicillin/streptomycin, 1% (v/v) glutamine, 1% (v/v) non-essential amino acids and 10 mM HEPES. On the day prior to infection, Huh7 cells were seeded in 96-well plates at a density of approximately 3.1 × 10^4 cell/cm^2 and incubated at 37 °C, 5% CO2. Stock solutions of the complexes were initially prepared in DMSO and serially diluted in infection medium, i.e., culture medium supplemented with gentamicin (50 µg/mL) and fungizone (0.8 µg/mL), to obtain the test concentrations. As a control, DMSO was diluted in infection medium to a percentage that equals that of the highest compound concentrations tested. These dilutions were added to the cells in triplicates and incubated for 1 h at 37 °C, 5% CO2, after which 1 × 10^4 luciferase-expressing P. berghei sporozoites were added to each well. Plates were centrifuged at 1800× g for 5 min at room temperature and incubated for the duration of the assay. At 46 h post-infection (hpi), the impact of each compound concentration on cell viability was assessed by the Alamar Blue (Invitrogen, Buckinghamshire, UK) assay, according to the manufacturer’s recommendations. Infection was next assessed by bioluminescence, employing the Firefly Luciferase Assay Kit 2.0 (Biotium, Fremont, CA, USA), according to the manufacturer’s recommendations. For IC50 determination, nonlinear regression analysis was employed to fit the normalized results of the dose–response curves, using GraphPad Prism 8 (GraphPad software, La Jolla, CA, USA).

[3] = tested on: C. albicans SC5134; assay: MIC determination, C. albicans; assay type: cell-based, Candida albicans; conditions: RPMIG, 24 h, 35 °C
Excerpt: (§1) The bacterial strains Escherichia coli ATCC25922 and Staphylococcus aureus Newman were used in this work and maintained in Lennox Broth (LB) solid medium, composed of 10 g/L tryptone, 5 g/L yeast extract, 5 g/L NaCl and 20 g/L agar. The fungal strains Candida albicans SC5134 and C. glabrata CBS138 were used in this work and maintained in YPD solid medium, composed of 20 g/L glucose, 20 g/L peptone, 10 g/L yeast extract and 15 g/L agar. The strains were isolated from human infections.
(§2) The antimicrobial activity of the complexes towards the bacterial and fungal strains was assessed by the determination of the Minimal Inhibitory Concentration (MIC) of each complex towards the indicated microbial strains, based on standard methods, and as previously described. […] Serial 1:2 dilutions of stock solutions were prepared for each complex in Mueller–Hinton (MH) broth (Fluka Analytical) or RPMI-1640 medium (Sigma) supplemented with 20 g/L glucose and buffered with 0.165 M morpholinepropanesulphonic acid (RPMIG) to pH 7.0. Solutions prepared with MH were used for testing bacteria, while those prepared with RPMIG were used for testing fungi. For antibacterial activity assays, the final concentrations ranged from 250 to 0.24 μg/mL (when stock solution final concentration was 10 mg/mL), 125 μg/mL to 0.12 μg/mL (when stock solution final concentration was 5 mg/mL) and 62.5 to 0.06 μg/mL (when stock solution final concentration was 2.5 mg/mL). For antifungal assays, the final concentrations ranged from 125 μg/mL to 0.12 μg/mL (when stock solution final concentration was 10 mg/mL), 62.5 to 0.06 μg/mL (when stock solution final concentration was 5 mg/mL) and 31.25 to 0.03 μg/mL (when stock solution final concentration was 2.5 mg/mL). Then, 100 μL aliquots of adequately diluted bacterial suspensions of S. aureus Newman or E. coli ATCC 25922 were mixed with the MH serially diluted complexes aliquots to obtain 5 × 10^5 CFU/mL. In the case of fungi, cultures were diluted to obtain a final optical density of 0.025, measured at 530 nm (OD530). Bacterial suspensions were prepared from cultures grown for 5 h in MH broth at 37 °C and 250 rev·min^−1 and adequately diluted with fresh MH medium, while fungal suspensions were prepared from overnight cultures grown in YPD broth at 30 °C and 250 rev.min^−1 and diluted in buffered RPMIG. After 22 h of incubation at 37 °C (bacteria) or 24 h at 35 °C (fungi), the wells’ content was resuspended by pipetting and the OD640 (bacteria) or OD530 (fungi) were measured in a SPECTROstar Nano microplate reader (BMG Labtech).
(§3) At least three independent experiments were performed in duplicate for each complex under study. […] Positive (no complex) and negative controls (no inoculum) were performed for each experiment. The effect of 5% (V/V) DMSO on microbial growth was also assessed.

[4] = tested on: C. glabrata CBS138; assay: MIC determination, C. glabrata; assay type: cell-based, Candida glabrata; conditions: RPMIG, 24 h, 35 °C
Excerpt: as §1, §2, §3

[5] = tested on: TZM-bl cells; assay: alamarBlue cytotoxicity in TZM-bl cells; assay type: cell-based
Procedure: The in vitro cytotoxicity of auranofin, [P][AuSBu(=S)] and [P][AuSEt(=S)] was evaluated in TZM-bl cells using alamarBlue cell viability reagent (Life Technologies, Carlsbad, CA, USA). TZM-bl cells (AIDS Research and Reference Reagent Program, National Institutes of Health, Bethesda, MD, USA) were cultured in complete growth medium that consists of Dulbecco’s minimal essential medium (DMEM) supplemented with 10% fetal bovine serum (FBS), 100 U/ml of penicillin-streptomycin (Gibco/Invitrogen, Waltham, MA, USA), 1 mM of sodium pyruvate (Gibco/Invitrogen, Carlsbad, CA, USA), 2 mM of L-glutamine (Gibco/Invitrogen, USA) and 1 mM of non-essential amino acids (Gibco/Invitrogen, USA). Cells were cultured in the presence and absence of serial-fold dilutions of the compounds. At least two independent experiments were performed for each cytotoxicity analysis. Each dilution of each compound was performed in triplicate wells. For each assay we had medium controls (only growth medium), cell controls (cells without test compound) and cytotoxicity controls (a compound that kill cells). The cytotoxicity of each compound was expressed by the 50% cytotoxic concentration (CC50), which is the concentration of compound causing 50% decrease in cellular viability.

| Structure (SMILES) | IC50 [1] [nM] | toxicity seen as lower cell confluency [2] | MIC C. albicans SC5134 [3] | MIC C. glabrata CBS138 [4] [µg/mL] | CC50 [5] | cytotoxicity in TZM-bl culture cells [5] | CC50 ([5]; TZM-bl cells, alamarBlue, read-out: CC50) [µM] |
| --- | --- | --- | --- | --- | --- | --- | --- |
| CCn1c2c(sc1=[Se])[S][Au-]1([S]c3sc(=[Se])n(CC)c3[S]1)[S]2.c1ccc([P+](c2ccccc2)(c2ccccc2)c2ccccc2)cc1 [[P][AuSEt(=Se)]] | 970 ± 180 | some degree of toxicity | >62.5 µg/mL | >62.5 |  |  |  |
| CCn1c2c(sc1=S)[S][Au-]1([S]c3sc(=S)n(CC)c3[S]1)[S]2.c1ccc([P+](c2ccccc2)(c2ccccc2)c2ccccc2)cc1 [[P][AuSEt(=S)]] | 850 ± 190 | some degree of toxicity | >62.5 µg/mL | >62.5 | 4.92 µM | No significant cytotoxicity |  |
| CC(=O)OC[C@H]1O[C@@H]([S-])[C@H](OC(C)=O)[C@@H](OC(C)=O)[C@@H]1OC(C)=O.CCP(CC)CC.[Au+] [Auranofin, reference compound] | 1040 ± 410 |  | 7.9 µg/mL and 7.9 ± 0.5 µg/mL | 15.2 ± 0.6 |  |  | 3.21 |
| CC(C)n1c2c(sc1=S)[Se][Au-]1([Se]c3sc(=S)n(C(C)C)c3[Se]1)[Se]2.c1ccc([P+](c2ccccc2)(c2ccccc2)c2ccccc2)cc1 [[P][AuSeiPr(=S)]] | 3860 ± 910 |  | >31.25 µg/mL | >31.25 |  |  |  |
| CCCCn1c2c(sc1=S)[S][Au-]1([S]c3sc(=S)n(CCCC)c3[S]1)[S]2.c1ccc([P+](c2ccccc2)(c2ccccc2)c2ccccc2)cc1 [[P][AuSBu(=S)]] | 1410 ± 560 |  | >62.5 µg/mL | >62.5 | not possible to calculate | No significant cytotoxicity |  |
